What all share (format): binding
One assay has as its target T1, CLK4 (Homo sapiens, UniProt Q9HAZ1).
T1 construct: purchased Ambit Biosciences (scanMAXX KINOMEscan)
Put plainly: KINOMEscan, CLK4. To be noted: for remaining binding at 1 µM: read-out: % of control at 1 µM.

Assay [1] deals with T2, panel of 442 kinases (Homo sapiens, UniProt P41240).
T2 construct: purchased Ambit Biosciences (scanMAXX KINOMEscan)
The experiment in a line: biochemical. The note with it: CSK; for remaining activity at 1 µM: read-out: % of control at 1 µM.

For assay [2], the target named is T3, panel of 442 kinases (Homo sapiens, UniProt P42679).
T3 construct: purchased Ambit Biosciences (scanMAXX KINOMEscan)
T3 sequence (P42679 1-507): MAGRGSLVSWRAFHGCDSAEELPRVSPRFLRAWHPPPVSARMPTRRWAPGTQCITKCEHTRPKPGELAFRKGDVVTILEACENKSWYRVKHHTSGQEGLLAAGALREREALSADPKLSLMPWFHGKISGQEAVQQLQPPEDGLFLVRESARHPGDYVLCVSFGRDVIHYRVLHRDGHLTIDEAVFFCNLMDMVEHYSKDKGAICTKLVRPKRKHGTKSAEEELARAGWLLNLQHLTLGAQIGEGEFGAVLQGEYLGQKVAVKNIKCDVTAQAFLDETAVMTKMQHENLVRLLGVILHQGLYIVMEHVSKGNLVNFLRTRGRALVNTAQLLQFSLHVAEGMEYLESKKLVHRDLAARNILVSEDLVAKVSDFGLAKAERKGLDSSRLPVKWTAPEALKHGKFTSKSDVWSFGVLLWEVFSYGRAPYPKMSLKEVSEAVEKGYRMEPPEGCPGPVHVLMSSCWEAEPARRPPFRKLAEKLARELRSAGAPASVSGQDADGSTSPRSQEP
The experiment in a line: biochemical. To be noted: CTK; for remaining activity at 1 µM: read-out: % of control at 1 µM.

Assay [3] addresses T4, panel of 442 kinases (Homo sapiens, UniProt P00533, L858R/T790M).
T4 construct: purchased Ambit Biosciences (scanMAXX KINOMEscan)
Put plainly: biochemical. The note with it: EGFR(L858R,T790M); for remaining activity at 1 µM: read-out: % of control at 1 µM.

In assay [4] the target is T5, panel of 442 kinases (Homo sapiens, UniProt Q9Y2H1).
T5 construct: purchased Ambit Biosciences (scanMAXX KINOMEscan)
Put plainly: biochemical. To be noted: kinase NDR2; for remaining activity at 1 µM: read-out: % of control at 1 µM.

For assay [5], the target named is T6, panel of 442 kinases (Homo sapiens, UniProt Q15208).
T6 construct: purchased Ambit Biosciences (scanMAXX KINOMEscan)
Put plainly: biochemical. To be noted: kinase NDR1; for remaining activity at 1 µM: read-out: % of control at 1 µM.

For assay [6], the target named is T7, panel of 442 kinases (Homo sapiens, UniProt P37023).
T7 construct: purchased Ambit Biosciences (scanMAXX KINOMEscan)
Put plainly: biochemical. To be noted: ACVRL1; for remaining activity at 1 µM: read-out: % of control at 1 µM.

Assay [7] addresses T8, panel of 442 kinases (Homo sapiens, UniProt Q9P2K8, S808G).
T8 construct: purchased Ambit Biosciences (scanMAXX KINOMEscan)
Put plainly: biochemical. The note with it: kinase GCN2(Kin.Dom.2,S808G); for remaining activity at 1 µM: read-out: % of control at 1 µM.

In assay [8] the target is T9, panel of 442 kinases (Homo sapiens, UniProt P09769).
T9 construct: purchased Ambit Biosciences (scanMAXX KINOMEscan)
T9 sequence (P09769 whole entry): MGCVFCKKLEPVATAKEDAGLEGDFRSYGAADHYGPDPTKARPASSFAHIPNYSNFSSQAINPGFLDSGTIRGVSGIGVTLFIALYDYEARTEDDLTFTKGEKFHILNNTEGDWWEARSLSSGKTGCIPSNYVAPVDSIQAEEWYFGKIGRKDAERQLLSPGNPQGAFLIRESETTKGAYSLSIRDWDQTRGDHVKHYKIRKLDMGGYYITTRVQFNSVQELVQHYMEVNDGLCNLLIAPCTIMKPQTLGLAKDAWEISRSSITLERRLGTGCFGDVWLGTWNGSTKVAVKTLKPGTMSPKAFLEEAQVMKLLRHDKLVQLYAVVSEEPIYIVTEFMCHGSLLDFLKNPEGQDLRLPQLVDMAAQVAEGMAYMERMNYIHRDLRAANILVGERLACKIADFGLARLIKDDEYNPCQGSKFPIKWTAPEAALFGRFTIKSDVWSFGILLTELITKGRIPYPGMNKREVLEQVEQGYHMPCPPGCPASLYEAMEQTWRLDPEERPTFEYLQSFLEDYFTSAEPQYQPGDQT
The experiment in a line: biochemical. The note with it: FGR; for remaining activity at 1 µM: read-out: % of control at 1 µM.

Assay [9] deals with T10, panel of 442 kinases (Homo sapiens, UniProt P43405).
T10 construct: purchased Ambit Biosciences (scanMAXX KINOMEscan)
The experiment in a line: biochemical. To be noted: kinase SYK; for remaining activity at 1 µM: read-out: SYK (% of control at 1 µM).

Assay [10] deals with T11, panel of 442 kinases (Homo sapiens, UniProt Q00532).
T11 construct: purchased Ambit Biosciences (scanMAXX KINOMEscan)
T11 sequence (Q00532 whole entry): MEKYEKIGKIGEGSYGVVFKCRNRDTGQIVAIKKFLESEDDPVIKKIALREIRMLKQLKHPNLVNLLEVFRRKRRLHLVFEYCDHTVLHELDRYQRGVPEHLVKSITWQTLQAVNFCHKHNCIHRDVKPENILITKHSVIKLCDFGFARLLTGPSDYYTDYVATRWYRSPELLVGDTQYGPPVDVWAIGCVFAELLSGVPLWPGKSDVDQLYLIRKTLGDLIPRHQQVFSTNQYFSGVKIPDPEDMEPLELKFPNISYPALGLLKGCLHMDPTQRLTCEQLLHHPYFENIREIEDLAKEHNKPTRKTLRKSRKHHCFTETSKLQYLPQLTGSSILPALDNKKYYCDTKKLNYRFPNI
The experiment in a line: biochemical. To be noted: CDKL1; for remaining activity at 1 µM: read-out: % of control at 1 µM.

The target of assay [11] is T12, panel of 442 kinases (Homo sapiens, UniProt Q13873).
T12 construct: purchased Ambit Biosciences (scanMAXX KINOMEscan)
T12 sequence (Q13873 27-1038): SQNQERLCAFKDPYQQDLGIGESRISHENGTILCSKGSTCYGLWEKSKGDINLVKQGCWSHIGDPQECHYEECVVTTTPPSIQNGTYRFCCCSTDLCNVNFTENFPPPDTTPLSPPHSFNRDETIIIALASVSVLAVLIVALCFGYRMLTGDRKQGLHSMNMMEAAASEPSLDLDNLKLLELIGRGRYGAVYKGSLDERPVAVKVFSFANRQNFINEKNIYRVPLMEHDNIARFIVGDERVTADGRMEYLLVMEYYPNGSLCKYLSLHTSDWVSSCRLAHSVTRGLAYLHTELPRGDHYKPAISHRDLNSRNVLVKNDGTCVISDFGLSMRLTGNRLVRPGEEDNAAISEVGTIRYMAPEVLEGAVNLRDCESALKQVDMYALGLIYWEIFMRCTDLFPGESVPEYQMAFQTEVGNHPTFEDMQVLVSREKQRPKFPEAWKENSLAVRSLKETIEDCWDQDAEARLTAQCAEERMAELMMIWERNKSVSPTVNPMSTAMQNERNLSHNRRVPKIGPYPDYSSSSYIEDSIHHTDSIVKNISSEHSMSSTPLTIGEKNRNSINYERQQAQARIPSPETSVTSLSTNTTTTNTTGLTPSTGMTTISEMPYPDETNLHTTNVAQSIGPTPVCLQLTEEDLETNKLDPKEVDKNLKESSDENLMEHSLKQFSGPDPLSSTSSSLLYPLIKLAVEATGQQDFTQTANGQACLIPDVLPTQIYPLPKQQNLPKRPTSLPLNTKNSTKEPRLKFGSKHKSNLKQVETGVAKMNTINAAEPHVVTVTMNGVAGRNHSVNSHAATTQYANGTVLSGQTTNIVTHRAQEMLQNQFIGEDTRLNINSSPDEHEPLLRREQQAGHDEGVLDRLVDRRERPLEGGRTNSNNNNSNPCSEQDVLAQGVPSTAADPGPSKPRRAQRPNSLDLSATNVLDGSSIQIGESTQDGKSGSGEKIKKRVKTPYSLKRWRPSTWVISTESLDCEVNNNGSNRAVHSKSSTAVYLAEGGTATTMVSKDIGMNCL
The experiment in a line: biochemical. The note with it: BMPR2; for remaining activity at 1 µM: read-out: % of control at 1 µM.

[12] abbreviates: 10 µM, read-out: % of control at 10 µM.

T4 sequence (P00533 25-1210 T790M/L858R): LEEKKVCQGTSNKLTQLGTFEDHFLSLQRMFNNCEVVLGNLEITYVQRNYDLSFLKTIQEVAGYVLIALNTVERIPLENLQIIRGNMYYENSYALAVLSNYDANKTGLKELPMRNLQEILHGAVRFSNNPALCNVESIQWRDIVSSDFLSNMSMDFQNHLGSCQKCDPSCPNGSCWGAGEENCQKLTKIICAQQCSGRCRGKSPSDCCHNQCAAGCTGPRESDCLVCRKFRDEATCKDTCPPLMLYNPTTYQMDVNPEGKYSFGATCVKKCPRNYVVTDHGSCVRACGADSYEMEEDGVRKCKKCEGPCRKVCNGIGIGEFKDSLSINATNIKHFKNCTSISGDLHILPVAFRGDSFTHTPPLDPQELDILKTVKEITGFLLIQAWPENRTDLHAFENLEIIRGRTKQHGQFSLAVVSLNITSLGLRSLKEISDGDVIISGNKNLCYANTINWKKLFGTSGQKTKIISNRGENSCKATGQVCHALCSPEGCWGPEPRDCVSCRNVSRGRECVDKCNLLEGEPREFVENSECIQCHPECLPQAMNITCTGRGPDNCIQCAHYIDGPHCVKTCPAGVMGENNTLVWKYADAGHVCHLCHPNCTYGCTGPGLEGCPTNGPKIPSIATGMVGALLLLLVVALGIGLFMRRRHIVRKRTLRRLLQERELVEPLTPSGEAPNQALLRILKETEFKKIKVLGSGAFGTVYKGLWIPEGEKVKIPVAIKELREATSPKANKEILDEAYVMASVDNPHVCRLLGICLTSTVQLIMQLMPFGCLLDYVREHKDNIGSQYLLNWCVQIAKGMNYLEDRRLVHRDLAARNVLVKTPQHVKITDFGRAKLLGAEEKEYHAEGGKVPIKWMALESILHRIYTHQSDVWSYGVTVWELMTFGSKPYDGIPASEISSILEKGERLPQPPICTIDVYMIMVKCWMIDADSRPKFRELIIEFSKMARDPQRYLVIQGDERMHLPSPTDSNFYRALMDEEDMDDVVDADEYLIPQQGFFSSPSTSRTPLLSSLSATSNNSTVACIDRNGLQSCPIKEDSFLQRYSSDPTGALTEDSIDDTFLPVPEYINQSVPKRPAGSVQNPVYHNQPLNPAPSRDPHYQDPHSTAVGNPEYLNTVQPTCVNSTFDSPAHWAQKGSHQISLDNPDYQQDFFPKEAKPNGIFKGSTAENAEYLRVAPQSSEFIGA
T1 sequence (Q9HAZ1 whole entry): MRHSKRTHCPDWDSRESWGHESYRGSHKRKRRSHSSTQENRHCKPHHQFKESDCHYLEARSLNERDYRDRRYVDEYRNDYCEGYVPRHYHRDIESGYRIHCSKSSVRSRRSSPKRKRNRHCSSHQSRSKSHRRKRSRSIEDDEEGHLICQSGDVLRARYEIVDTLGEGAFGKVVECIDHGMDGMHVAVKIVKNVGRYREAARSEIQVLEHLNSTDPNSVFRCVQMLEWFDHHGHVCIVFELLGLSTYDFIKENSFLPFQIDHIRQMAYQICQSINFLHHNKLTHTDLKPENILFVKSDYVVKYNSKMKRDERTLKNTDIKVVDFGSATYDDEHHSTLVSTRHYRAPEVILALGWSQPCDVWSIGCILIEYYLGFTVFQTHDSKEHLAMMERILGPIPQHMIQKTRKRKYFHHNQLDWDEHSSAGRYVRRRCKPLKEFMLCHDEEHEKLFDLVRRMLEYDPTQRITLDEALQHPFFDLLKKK
T2 sequence (P41240 whole entry): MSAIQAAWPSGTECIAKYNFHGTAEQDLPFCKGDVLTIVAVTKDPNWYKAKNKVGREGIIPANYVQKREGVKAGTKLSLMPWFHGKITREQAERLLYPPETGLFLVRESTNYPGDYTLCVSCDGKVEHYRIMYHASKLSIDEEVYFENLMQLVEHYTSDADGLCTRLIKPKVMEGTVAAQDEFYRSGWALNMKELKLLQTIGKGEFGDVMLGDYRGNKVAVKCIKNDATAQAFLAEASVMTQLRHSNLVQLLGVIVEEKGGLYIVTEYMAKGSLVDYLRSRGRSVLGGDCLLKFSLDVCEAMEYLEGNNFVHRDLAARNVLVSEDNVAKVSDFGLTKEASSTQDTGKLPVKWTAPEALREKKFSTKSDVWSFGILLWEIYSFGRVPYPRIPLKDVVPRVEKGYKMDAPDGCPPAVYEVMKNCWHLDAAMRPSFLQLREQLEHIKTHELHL
T8 sequence (Q9P2K8 whole entry S808G): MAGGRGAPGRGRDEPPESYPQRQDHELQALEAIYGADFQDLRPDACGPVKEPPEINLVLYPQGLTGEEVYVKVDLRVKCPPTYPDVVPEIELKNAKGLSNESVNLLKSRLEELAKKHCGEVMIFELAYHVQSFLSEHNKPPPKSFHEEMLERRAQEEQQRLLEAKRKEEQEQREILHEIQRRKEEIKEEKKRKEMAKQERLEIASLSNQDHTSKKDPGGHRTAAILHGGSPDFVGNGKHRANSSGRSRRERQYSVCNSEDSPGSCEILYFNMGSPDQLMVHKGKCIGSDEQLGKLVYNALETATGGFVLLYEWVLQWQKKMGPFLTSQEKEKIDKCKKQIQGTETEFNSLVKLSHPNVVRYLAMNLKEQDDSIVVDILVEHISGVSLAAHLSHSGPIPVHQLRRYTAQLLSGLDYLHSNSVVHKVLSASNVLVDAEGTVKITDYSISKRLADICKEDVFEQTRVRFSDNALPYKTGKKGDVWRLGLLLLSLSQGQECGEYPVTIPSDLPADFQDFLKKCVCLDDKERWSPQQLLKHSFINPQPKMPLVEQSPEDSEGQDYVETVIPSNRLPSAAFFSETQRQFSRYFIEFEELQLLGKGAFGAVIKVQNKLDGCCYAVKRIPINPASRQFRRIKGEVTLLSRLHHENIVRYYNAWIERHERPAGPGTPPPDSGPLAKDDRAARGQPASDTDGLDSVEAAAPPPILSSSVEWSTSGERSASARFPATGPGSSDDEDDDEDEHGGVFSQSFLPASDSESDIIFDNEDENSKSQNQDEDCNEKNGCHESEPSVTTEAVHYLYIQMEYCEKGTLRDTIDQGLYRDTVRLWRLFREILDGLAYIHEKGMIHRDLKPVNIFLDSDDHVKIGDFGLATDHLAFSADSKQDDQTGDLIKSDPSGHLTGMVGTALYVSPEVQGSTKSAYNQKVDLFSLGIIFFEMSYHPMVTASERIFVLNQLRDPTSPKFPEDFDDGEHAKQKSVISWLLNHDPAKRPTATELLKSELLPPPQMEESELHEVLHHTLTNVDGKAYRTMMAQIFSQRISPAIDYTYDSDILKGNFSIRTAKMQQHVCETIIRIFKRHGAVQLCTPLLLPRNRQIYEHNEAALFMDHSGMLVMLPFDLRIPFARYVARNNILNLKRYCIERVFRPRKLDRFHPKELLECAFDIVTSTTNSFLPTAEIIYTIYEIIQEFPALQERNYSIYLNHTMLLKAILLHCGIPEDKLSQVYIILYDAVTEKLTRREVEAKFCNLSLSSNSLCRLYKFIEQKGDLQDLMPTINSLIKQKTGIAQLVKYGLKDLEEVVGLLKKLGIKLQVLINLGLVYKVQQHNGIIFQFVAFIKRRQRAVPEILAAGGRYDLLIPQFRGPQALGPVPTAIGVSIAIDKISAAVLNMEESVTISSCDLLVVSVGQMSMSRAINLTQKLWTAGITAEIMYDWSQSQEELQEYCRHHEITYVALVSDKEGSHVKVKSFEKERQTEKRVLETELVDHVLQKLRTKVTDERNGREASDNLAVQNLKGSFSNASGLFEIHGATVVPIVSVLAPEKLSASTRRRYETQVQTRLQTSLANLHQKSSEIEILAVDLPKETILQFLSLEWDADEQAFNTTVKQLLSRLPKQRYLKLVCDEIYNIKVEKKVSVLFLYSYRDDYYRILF

On to `Nc1cc(C(F)(F)F)c(-c2cc(N3CCOCC3)nc(N3CCOCC3)n2)cn1` [Buparlisib], for which the “binding to CLK4” value at CLK4 (10 μM) is given as more than 80%. Moreover, the remaining binding at 1 µM at CLK4 (CLK4) was 38%. Besides, the remaining binding at 10 µM at CLK4 (CLK4, 10 µM, read-out: % of control at 10 µM) came to 13%. The remaining activity at 1 µM turned out to be 94% at panel of 442 kinases [1]; 100% at panel of 442 kinases [2]; 100% on panel of 442 kinases [3]; 90% at panel of 442 kinases [4]; 100% on panel of 442 kinases [5]; 84% at panel of 442 kinases [6]. Further, the remaining activity at 1 µM is 100% at panel of 442 kinases [7]; 100% on panel of 442 kinases [8]; 98% at panel of 442 kinases [9]; 100% on panel of 442 kinases [10]; 86% on panel of 442 kinases [11]. The remaining activity at 10 µM on panel of 442 kinases [1] (setting [12]), on panel of 442 kinases [2] (setting [12]), at panel of 442 kinases [3] (setting [12]), on panel of 442 kinases [4] (setting [12]), on panel of 442 kinases [5] (setting [12]) and on panel of 442 kinases [6] (setting [12]) was 100% in each case. Besides, the remaining activity at 10 µM was determined as 100% on panel of 442 kinases [7] (setting [12]); 100% at panel of 442 kinases [8] (setting [12]); 100% on panel of 442 kinases [9] (10 µM, read-out: SYK (% of control at 10 µM)); 100% on panel of 442 kinases [10] (setting [12]); 88% on panel of 442 kinases [11] (setting [12]).
Usually inhibition stands for the percentage by which the read-out fell short of the control. Low readings indicate a weak effect, high ones a strong effect. `Cn1c(=O)n(-c2ccc(C(C)(C)C#N)cc2)c2c3cc(-c4cnc5ccccc5c4)ccc3ncc21` [Dactolisib, 2-methyl-2-[4-(3-methyl-2-oxo-8-quinolin-3-yl-2,3-dihydroimidazo[4,5-c]quinolin-1-yl)-phenyl] propionitrile] displayed an inhibition at 1 µM against CLK4 (1 μM) of more than 80%. Moreover, the remaining binding at 1 µM on CLK4 (CLK4) turned out to be 12%. Also, the remaining activity at 1 µM at panel of 442 kinases [1] stood at 81%; on panel of 442 kinases [2], 92%; on panel of 442 kinases [3], 100%; at panel of 442 kinases [4] it was 100%; at panel of 442 kinases [5] it was 100%; on panel of 442 kinases [6] it was 94%. Besides, the remaining activity at 1 µM on panel of 442 kinases [7] was 87%; at panel of 442 kinases [8] it was 81%; at panel of 442 kinases [9] it was 100%; at panel of 442 kinases [10], 100%; at panel of 442 kinases [11], 83%.
On to `COc1ncc(-c2ccc3nccc(-c4ccnnc4)c3c2)cc1NS(=O)(=O)c1ccc(F)cc1F` [Omipalisib], for which the remaining binding at 1 µM on CLK4 (CLK4) was 100%. The remaining activity at 1 µM at panel of 442 kinases [1] is 98%; at panel of 442 kinases [2], 100%; on panel of 442 kinases [3], 100%; on panel of 442 kinases [4] it was 100%; at panel of 442 kinases [5], 100%; at panel of 442 kinases [6] it was 100%. The remaining activity at 1 µM at panel of 442 kinases [7] was determined as 100%; on panel of 442 kinases [8] it was 84%; at panel of 442 kinases [9], 100%; on panel of 442 kinases [10] it was 100%; on panel of 442 kinases [11], 100%.
`FC(F)c1nc2ccccc2n1-c1nc(N2CCOCC2)nc(N2CCOCC2)n1` [ZSTK474, 2-(difluoromethyl)-1-[4,6-di(4-morpholinyl)-1,3,5-triazin-2-yl]-1H-benzimidazole]: the remaining binding at 1 µM on CLK4 (CLK4) stood at 96%. Also, the remaining activity at 1 µM at panel of 442 kinases [1] came to 89%; at panel of 442 kinases [2] it was 100%; at panel of 442 kinases [3] it was 100%; on panel of 442 kinases [4] it was 100%; at panel of 442 kinases [5], 95%; at panel of 442 kinases [6] it was 100%. The remaining activity at 1 µM at panel of 442 kinases [7] amounted to 89%; at panel of 442 kinases [8], 87%; on panel of 442 kinases [9], 100%; at panel of 442 kinases [10] it was 100%; on panel of 442 kinases [11], 100%.
